Laboratory results published in patent US12338236B2, “Benzoisothiazole and benzoisoxazole compounds for the treatment of mental disorders” (SUVEN LIFE SCIENCES LIMITED, priority 2022, dated 2025).
Where a name gives a salt, the structure may show the parent alone.

What was measured:
[1] = Rodent brain penetration study; format: in vivo, Male Wistar rats; details: male, Wistar, brain and plasma, po; rat, 3 mg/kg, p.o. @ 1 h; read-out: Rat Brain Penetration (Cbrain/Cplasma)
Description: Example-50: Rodent Brain Penetration Study Male Wistar rats (260±40 g) were used as experimental animals. Three animals were housed in each cage. Animals were given water and food ad libitum throughout the experiment and maintained on a 12 h light/dark cycle. Brain penetration was determined in discrete manner in rats. One day prior to dosing day, male Wistar rats were acclimatized and randomly grouped according to their weight. At each time point (0.50, 1 and 2 h) n=3 animals were used. The test compounds were suitably preformulated and administered orally at (free base equivalent) 3 mg/kg. Blood samples were removed via cardiac puncture by using isoflurane anesthesia. The animals were sacrificed to collect brain tissue. Plasma was separated and brain samples were homogenized and stored frozen at −20° C. until analysis. The concentrations of the test compounds in plasma and brain were determined using LC-MS/MS method. The test compounds were quantified in plasma and brain homogenate by qualified LC-MS/MS method using suitable extraction technique in the calibration range of 1-2000 ng/mL. Study samples were analyzed using calibration samples in the batch and quality control samples spread across the batch. Extent of brain-plasma ratio (Cbrain/Cplasma) was calculated

motor coordination = assay: Rat rotarod assay; format: in vivo; details: rats, doses of 3 & 10 mg/kg, 60 min prior to trial
Description: Example-52: Rat Rotarod Assay
The rotarod test was employed to investigate the possible effect of Example-2 on motor coordination. Twenty hours prior to the test, rats were trained to remain on revolving bar (4 rpm) of the rotarod apparatus (TSE Systems; GmHb, Germany). Animals that successfully stayed on rotating rod for 60 seconds (out of 4 trials per animal) were selected for further study. […] A single trial was carried out on the next day. Animals that were able to stay on the rotating rod for 60 seconds were chosen for further study. Animals were administered Example-2 or Vehicle 60 min prior to the trial. The latency to fall from the rotating rod was noted.

human 5-HT2A receptor = molecular target: T1, human 5-HT2A receptor (Homo sapiens, UniProt P28223); assay: Determination of Ki values at 5-HT2A receptor ([3H]-Ketanserine radioligand binding); details: h5-HT2A, CHO-K1, [3H]-Ketanserine 1.25 nM
T1 construct: expressed in transfected cells; host or cells: CHO-K1
Description: Example-44: Determination of Ki Values at 5-HT2A Receptor
• Receptor source: Recombinant mammalian cells (CHO-K1) • Radioligand: [^3H]-Ketanserine (41.9 Ci/mmol) • Final ligand concentration: 1.25 nM • Non-specific determinant: 0.1 mM 1-Napthyl piperazine (1-NP) • Reference compound: 1-Napthyl piperazine (1-NP) • Positive control: 1-Napthyl piperazine (1-NP) Incubation conditions: Reactions were carried out in buffer with pH 7.4 containing 50 mM Tris-HCl, 4 mM CaCl2, 0.1% Ascorbic acid for 1 h at RT. The reaction was terminated by rapid vacuum filtration onto the glass fiber filters. Radioactivity trapped onto the filters was determined and compared to the control values in order to ascertain any interactions of the test compound(s) with cloned human 5-HT2A receptor binding site.

[2] = Rodent pharmacokinetic study; format: in vivo, Male Wistar rats; details: male, Wistar, plasma, rat; for bioavailability: oral 3 mg/kg vs intravenous 1 mg/kg, read-out: F (Bioavailability)
Description: Example-49: Rodent Pharmacokinetic Study
Male Wistar rats (250±50 grams) were used as experimental animals. Animals were housed individually in polypropylene cages. Two days prior to study, male Wistar rats were anesthetized with isoflurane for surgical placement of jugular vein catheter. Rats were randomly divided for oral (3 mg/kg and 10 mL/kg as dose volume) and intravenous (1 mg/kg and 2.0 mL/kg as dose volume) dosing (n=3/group) and fasted overnight before oral dosing (p.o.). However, rats allocated to intravenous dosing food and water was provided ad libitum.
Intravenous formulation was prepared by using 5% Pharmasolve+45% Propylene Glycol+50% PEG 400 as vehicle. For Oral, formulation was prepared by using 0.25% Tween 80+99.75% of 1% (w/v) hydroxyethylcellulose solution as a vehicle. The dose formulations were prepared freshly on the day of dosing.
After dosing of animal, each time point a 200 μL of blood sample was collected through the jugular vein and replenished with an equivalent volume of normal saline. Collected blood sample was transferred into a labeled eppendorf tube containing 10 μL of sodium heparin (1000 IU/mL) as an anticoagulant. Typically blood samples were collected at following time points: 0.08, 0.25, 0.5, 1, 2, 4, 6, 8, and 24 h post dose. Blood was centrifuged at 4000 revolutions per minute (rpm) for 10 min. Plasma was separated and stored frozen at −80° C. until analysis. The concentrations of the test compounds were quantified in plasma by qualified LC-MS/MS method using suitable extraction technique in the calibration range around 1-2000 ng/mL in plasma. Study samples were analyzed using calibration samples in the batch and quality control samples spread across the batch.
Pharmacokinetic parameters Cmax, AUC0-t, t1/2, Clearance and Bioavailability (F) were calculated using standard non-compartmental model by using Phoenix WinNonlin 8.1 version Software package.

DOPA levels in striatum = assay: Reserpine-induced DOPA accumulation; format: in vivo, Male Wistar rats; details: rats, 3 mg/kg, p.o., 1.16 h before sacrifice, striatum
Description: Example-53: Reserpine-Induced DOPA Accumulation
Male Wistar rats were pretreated with reserpine (5 mg/kg, s.c.) approximately 18 h before sacrifice and were thereafter fasted until sacrifice. Example-2 (3 mg/kg, p.o.) and (3-(3-hydroxyphenyl)-N-n-propylpiperidine (3-PPP); 30 mg/kg, s.c.) were administered 1.16 h and 1 h, respectively before sacrifice. Haloperidol (0.5 mg/kg, s.c.) was used as a positive control and was dosed 10 min prior to 3-PPP in a separate group of animals. 3-Hydroxybenzylhydrazine dihydrochloride (NSD-1015; 100 mg/kg, s.c.) was then administered 0.5 h before sacrifice. Each rat was sacrificed, brain was removed and then striatum was isolated. The tissue was immediately weighed and homogenized in 0.1 N perchloric acid by means of an ultrasonic disruptor while being cooled in ice. The homogenate was centrifuged at 4° C. at 20,000 g for 15 min. The supernatant was assayed for dihydroxyphenylalanine (DOPA) levels using HPLC-ECD.

[3] = molecular target: T2, human histamine H1 receptor (Homo sapiens, UniProt P35367); assay: Determination of Ki values at histamine H1 receptor ([3H]-Pyrilamine SPA binding); details: hH1, CHO-K1, [3H]-Pyrilamine 2 nM
T2 construct: expressed in transfected cells; host or cells: CHO-K1
Description: Example-48: Determination of Ki values at Histamine H1 receptor
• Receptor source: Recombinant mammalian cells (CHO-K1) • Radioligand: [^3H]-Pyrilamine (20.7 Ci/mmol) • Final ligand concentration: 2 nM • Non-specific determinant: 0.1 mM Pyrilamine • Reference compound: Pyrilamine • Positive control: Pyrilamine Incubation conditions: Reactions were carried out in buffer with pH 7.4 containing 67 mM Tris-HCl and SPA beads (0.1 mg/well) for 1 h at 37° C. Radioactivity proximal to SPA beads was determined by scintillation proximity assay and compared to the control values in order to ascertain any interactions of the test compound(s) with cloned human histamine H1 receptor binding site.

T2 sequence (P35367 whole entry): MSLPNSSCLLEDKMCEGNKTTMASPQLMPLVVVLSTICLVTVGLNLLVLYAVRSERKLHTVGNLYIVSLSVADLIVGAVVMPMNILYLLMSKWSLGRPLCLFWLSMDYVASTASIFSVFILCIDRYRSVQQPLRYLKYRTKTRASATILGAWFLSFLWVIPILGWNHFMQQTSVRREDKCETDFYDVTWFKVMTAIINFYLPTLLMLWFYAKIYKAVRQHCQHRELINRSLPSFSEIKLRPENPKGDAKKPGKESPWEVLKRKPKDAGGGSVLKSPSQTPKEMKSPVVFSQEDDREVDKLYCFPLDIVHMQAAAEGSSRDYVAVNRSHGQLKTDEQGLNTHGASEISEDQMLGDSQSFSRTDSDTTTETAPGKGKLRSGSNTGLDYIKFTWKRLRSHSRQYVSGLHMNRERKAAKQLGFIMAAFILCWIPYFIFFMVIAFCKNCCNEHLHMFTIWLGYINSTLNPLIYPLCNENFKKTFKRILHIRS
T1 sequence (P28223 whole entry): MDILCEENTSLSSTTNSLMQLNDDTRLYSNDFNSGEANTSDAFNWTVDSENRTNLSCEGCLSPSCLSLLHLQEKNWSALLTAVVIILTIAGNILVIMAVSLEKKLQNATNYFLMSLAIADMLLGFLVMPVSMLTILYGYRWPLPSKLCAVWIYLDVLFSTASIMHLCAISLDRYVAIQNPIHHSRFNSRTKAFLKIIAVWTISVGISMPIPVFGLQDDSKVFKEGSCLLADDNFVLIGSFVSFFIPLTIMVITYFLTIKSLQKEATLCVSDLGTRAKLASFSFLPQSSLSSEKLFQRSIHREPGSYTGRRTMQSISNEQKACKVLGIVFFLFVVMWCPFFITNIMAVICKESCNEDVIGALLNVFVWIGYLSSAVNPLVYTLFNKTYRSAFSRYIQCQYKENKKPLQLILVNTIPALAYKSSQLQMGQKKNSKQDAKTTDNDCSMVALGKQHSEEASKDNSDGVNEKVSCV

Cc1nnc(-c2csc(OCCCN3CCN(c4nsc5ccccc45)CC3)n2)o1 [Example-2, 3-(4-{3-[4-(5-Methyl-[1,3,4]oxadiazol-2-yl)-thiazol-2-yloxy]-propyl}-piperazin-1-yl)-benzo[d]isothiazole oxalate]
Kp at 1 h [1]: 1.25 | Effect on motor coordination (latency to fall from rotating rod) (motor coordination): No notable effects on motor coordination | Ki (human 5-HT2A receptor): 0.24 nM | bioavailability [2]: 46 ± 2% | AUC(0-t) ([2]; intravenous (bolus), 1 mg/kg): 575 ± 60.8 ng·h/mL | half-life ([2]; intravenous (bolus), 1 mg/kg): 1.98 ± 0.96 h | AUC(0-t) ([2]; oral (gavage), 3 mg/kg): 795 ± 34.5 ng·h/mL | Cmax ([2]; oral (gavage), 3 mg/kg): 724 ± 170 ng/mL | Blockade of the effects of 3-PPP on reserpine induced DOPA accumulation (DOPA levels in striatum): 25% | Ki [3]: 9.9 nM

Cc1noc(-c2csc(OCCCN3CCN(c4nsc5ccccc45)CC3)n2)n1 [compound 12, 3-(4-{3-[4-(3-Methyl-[1,2,4]oxadiazol-5-yl)-thiazol-2-yloxy]-propyl}-piperazin-1-yl)-benzo[d]isothiazole oxalate]
Kp at 1 h [1]: 2.09 | Ki (human 5-HT2A receptor): 0.5 nM | bioavailability [2]: 18 ± 4.3% | AUC(0-t) ([2]; intravenous (bolus), 1 mg/kg): 467 ± 115 ng·h/mL | half-life ([2]; intravenous (bolus), 1 mg/kg): 2.59 ± 0.49 h | AUC(0-t) ([2]; oral (gavage), 3 mg/kg): 250 ± 60 ng·h/mL | Cmax ([2]; oral (gavage), 3 mg/kg): 279 ± 59.2 ng/mL | Ki [3]: 4.1 nM
